Data published in patent publication US20230028441A1, “NOVEL HETEROARYL-TRIAZOLE COMPOUNDS AS PESTICIDES” (Bayer Aktiengesellschaft, priority 2019, published 2023).

Tests used:
Format in all cases: in vivo
[1] = tested on: adult unfed cat fleas (Ctenocephalides felis); assay: Ctenocephalides felis oral test; conditions: 48 h, 100 ppm in cattle blood, after 2 days
How it was run: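 Percent flea mortality recorded at 2 days. Compound was dissolved in dimethyl sulfoxide and diluted into cattle blood, which ~20 unfed adult cat fleas ingested through parafilm from a 37°C-heated chamber, their own chamber kept at room temperature.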

[2] = tested on: caterpillars of the fall army worm (Spodoptera frugiperda); assay: Spodoptera frugiperda spray test (cotton leaves); conditions: 168 h
How it was run: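 Cotton leaves sprayed with compound in water/DMF with 1000 ppm alkylaryl polyglycol ether emulsifier, ammonium salt and/or penetration enhancer at 1000 ppm added if necessary, then infested with fall armyworm caterpillars. Mortality in % scored after 7 days; 100% means all caterpillars killed.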

[3] = tested on: green peach aphid (Myzus persicae); assay: Myzus persicae oral test; conditions: 120 h
How it was run: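 Aphids of mixed population ingest the compound preparation by sucking through a parafilm sheet stretched over wells holding test solution plus IPL41 insect medium (33%+15% sugar). Kill rate in percent is determined five days later.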

[4] = tested on: adult brown dog ticks (Rhipicephalus sanguineus); assay: Rhipicephalus sanguineus in-vitro contact test with adult brown dog ticks; conditions: after 48 hours, read-out: efficacy (ticks dead or moribund); for pest or weed control at 1 µg/cm2, 100 g/ha: 1 μg/cm^2 (=100 g/ha); for pest or weed control at 5 µg/cm2, 500 g/ha: 5 μg/cm^2 (=500 g/ha)
How it was run: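 Efficacy is the percentage of adult ticks dead or moribund, meaning immotile or uncoordinated and unable to escape 45-50° C. heat within 5 min. Read 48 h after 5-10 ticks were enclosed at room temperature in acetone-coated glass tubes. Dose 5 μg/cm^2, from a 900 ppm coating solution.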

[5] = tested on: green peach aphid (Myzus persicae); assay: Myzus persicae spray test; conditions: foliar, 120 h, 100 g/ha, after 5 days, Chinese cabbage leaf disks
How it was run: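 Chinese cabbage leaf disks carrying all instars of Myzus persicae were sprayed with compound. The formulation was acetone/dimethylformamide diluted in water with 1000 ppm alkylarylpolyglycol ether emulsifier. Percent mortality was scored after 5 days, with 100% meaning all aphids killed.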

[6] = tested on: Anopheles funestus strain FUMOZ-R; assay: Anopheles funestus test (ANPHFU surface treatment & contact assay); conditions: 24 hours after contact, read-out: efficacy (mortality)
Method: (§1) Solvent: Aceton+2000 ppm rapeseed oil methyl ester (RME)
(§2) In order to produce a sufficient, active ingredient containing solution it is necessary to solve the test compound in the solvent-mix (acetone at 2 mg/ml/RME 2000 ppm). This solution is pipetted onto a glazed tile and after evaporation of the acetone, adult mosquitoes of the species Anopheles funestus strain FUMOZ-R (Hunt et al., Med. Vet. Entomol. 2005 September; 19(3): 271-275) are placed onto the dried surface. The exposure time is 30 minutes.
(§3) Mortality in percent (%) is determined 24 hours after contact of the insects to the treated surface. 100% mortality means that all tested insects are dead, whereas 0% means that no insect died.

[7] = tested on: cattle ticks (Rhipicephalus microplus) strain Parkhurst, SP-resistant; assay: Rhipicephalus (Boophilus) microplus dip test; conditions: 100 ppm, egg deposition after 7 days
Method: Test animal: cattle ticks (Rhipicephalus microplus) strain Parkhurst, SP-resistant
Solvent: dimethyl sulfoxide
To produce a suitable preparation of active compound, 10 mg of active compound are dissolved in 0.5 mL solvent, and the concentrate is diluted with water to the desired concentration.
This compound solution is pipetted into tubes. 8-10 engorged, adult, female cattle ticks (Rhipicephalus microplus) are placed in perforated tubes. These tubes are immersed in the aqueous compound solution until the ticks are completely moistened. After the liquid has drained off, the ticks are transferred to a filter paper in a plastic tray and stored in a climate chamber.
After 7 days egg deposition of fertile eggs is monitored. Eggs where fertility is not visible are stored in a climate chamber till hatching after about 42 days. An efficacy of 100% means all eggs are infertile; 0% means all eggs are fertile.

[8] = tested on: Blattella germanica strain PAULINIA; assay: Blattella germanica test (BLTTGE surface treatment & contact assay); conditions: 24 hours after contact, read-out: efficacy (mortality)
Method: as §1
as §2, with “animals” for “mosquitoes”, “Blattella germanica” for “Anopheles funestus”, “PAULINIA” for “FUMOZ-R (Hunt et al., Med. Vet. Entomol. 2005 September; 19(3): 271-275)”
as §3

[9] = surface concentration 4 mg/m^2, 30 minutes exposure
[10] = surface concentration 20 mg/m^2, 30 minutes exposure

SMILES: CC(NC(=O)c1cc(Cl)cc(C(F)(F)F)c1)c1nc(N)nn1-c1ccc(Cl)cn1 (racemic) [I-006, N-[1-[5-amino-2-(5-chloro-2-pyridyl)-1,2,4-triazol-3-yl]ethyl]-3-chloro-5-(trifluoromethyl)benzamide]
- mortality at 100 ppm [1]: 100%
- mortality at 20 ppm [2]: 100%
- mortality at 4 ppm [3]: 100%
- pest or weed control at 1 µg/cm2, 100 g/ha [4]: 80%
- pest or weed control at 5 µg/cm2, 500 g/ha [4]: 100%

SMILES: CNc1nc(C(C)NC(=O)c2cc(C(F)(F)F)cc(C(F)(F)F)c2)n(-c2ncccn2)n1 (stereo not drawn) [I-088]
- mortality at 100 g/ha [5]: 100%
- mortality at 100 ppm [1]: 100%
- mortality at 4 mg/m2 [6, 9]: 90 to 100%
- mortality at 20 mg/m2 [6, 10]: 90 to 100%
- mortality at 4 ppm [3]: 100%
- efficacy (infertile eggs) [7]: 100%
- mortality at 4 mg/m2 [8, 9]: 90 to 100%
- mortality at 20 mg/m2 [8, 10]: 90 to 100%
- pest or weed control at 1 µg/cm2, 100 g/ha [4]: 100%
- pest or weed control at 5 µg/cm2, 500 g/ha [4]: 100%
